From the NIST ThermoML archive (doi:10.1016/j.jct.2017.10.012)

Details: Liquid, Vibrating tube method

CCCC[n+]1cccc(C)c1.O=S(=O)([N-]S(=O)(=O)C(F)(F)F)C(F)(F)F
Details | mass density [kg/m3]
278.15 K, 100 kPa | 1431.5
278.15 K, 101.33 kPa | 1430.9
278.15 K, 1000 kPa | 1432.1
278.15 K, 10000 kPa | 1438.3
278.15 K, 20000 kPa | 1444.9
278.15 K, 40000 kPa | 1457.2
278.15 K, 60000 kPa | 1468.5
278.15 K, 80000 kPa | 1479.1
278.15 K, 100000 kPa | 1488.9
278.15 K, 120000 kPa | 1498.1
279.15 K, 101.33 kPa | 1429.9
280.15 K, 101.33 kPa | 1428.9
281.15 K, 101.33 kPa | 1427.9
282.15 K, 101.33 kPa | 1427
283.15 K, 101.33 kPa | 1426
284.15 K, 101.33 kPa | 1425
285.15 K, 101.33 kPa | 1424
286.15 K, 101.33 kPa | 1423.1
287.15 K, 101.33 kPa | 1422.1
288.15 K, 101.33 kPa | 1421.2
289.15 K, 101.33 kPa | 1420.2
290.15 K, 101.33 kPa | 1419.3
291.15 K, 101.33 kPa | 1418.3
292.15 K, 101.33 kPa | 1417.4
293.15 K, 101.33 kPa | 1416.5
294.15 K, 101.33 kPa | 1415.6
295.15 K, 101.33 kPa | 1414.6
296.15 K, 101.33 kPa | 1413.7
297.15 K, 101.33 kPa | 1412.8
298.15 K, 100 kPa | 1413.3
298.15 K, 101.33 kPa | 1411.9
298.15 K, 1000 kPa | 1414
298.15 K, 10000 kPa | 1420.4
298.15 K, 20000 kPa | 1427.3
298.15 K, 40000 kPa | 1440.1
298.15 K, 60000 kPa | 1452
298.15 K, 80000 kPa | 1463
298.15 K, 100000 kPa | 1473.5
298.15 K, 120000 kPa | 1483.1
299.15 K, 101.33 kPa | 1410.9
300.15 K, 101.33 kPa | 1410
301.15 K, 101.33 kPa | 1409.1
302.15 K, 101.33 kPa | 1408.2
303.15 K, 101.33 kPa | 1407.3
304.15 K, 101.33 kPa | 1406.4
305.15 K, 101.33 kPa | 1405.4
306.15 K, 101.33 kPa | 1404.5
307.15 K, 101.33 kPa | 1403.6
308.15 K, 101.33 kPa | 1402.7
309.15 K, 101.33 kPa | 1401.8
310.15 K, 101.33 kPa | 1400.9
311.15 K, 101.33 kPa | 1399.9
312.15 K, 101.33 kPa | 1399
313.15 K, 100 kPa | 1399.8
313.15 K, 101.33 kPa | 1398.1
313.15 K, 1000 kPa | 1400.5
313.15 K, 10000 kPa | 1407.3
313.15 K, 20000 kPa | 1414.5
313.15 K, 40000 kPa | 1428
313.15 K, 60000 kPa | 1440.3
313.15 K, 80000 kPa | 1451.7
313.15 K, 100000 kPa | 1462.4
313.15 K, 120000 kPa | 1472.1
314.15 K, 101.33 kPa | 1397.2
315.15 K, 101.33 kPa | 1396.3
316.15 K, 101.33 kPa | 1395.4
317.15 K, 101.33 kPa | 1394.5
318.15 K, 101.33 kPa | 1393.6
319.15 K, 101.33 kPa | 1392.7
320.15 K, 101.33 kPa | 1391.8
321.15 K, 101.33 kPa | 1390.9
322.15 K, 101.33 kPa | 1390
323.15 K, 101.33 kPa | 1389.2
324.15 K, 101.33 kPa | 1388.2
325.15 K, 101.33 kPa | 1387.4
326.15 K, 101.33 kPa | 1386.5
327.15 K, 101.33 kPa | 1385.6
328.15 K, 101.33 kPa | 1384.7
329.15 K, 101.33 kPa | 1383.8
330.15 K, 101.33 kPa | 1382.9
331.15 K, 101.33 kPa | 1382.1
332.15 K, 101.33 kPa | 1381.3
333.15 K, 100 kPa | 1381.5
333.15 K, 101.33 kPa | 1380.4
333.15 K, 1000 kPa | 1382.2
333.15 K, 10000 kPa | 1389.6
333.15 K, 20000 kPa | 1397.2
333.15 K, 40000 kPa | 1411.4
333.15 K, 60000 kPa | 1424.4
333.15 K, 80000 kPa | 1436.3
333.15 K, 100000 kPa | 1447.5
333.15 K, 120000 kPa | 1457.6
334.15 K, 101.33 kPa | 1379.4
335.15 K, 101.33 kPa | 1378.5
336.15 K, 101.33 kPa | 1377.6
337.15 K, 101.33 kPa | 1376.7
338.15 K, 101.33 kPa | 1375.8
339.15 K, 101.33 kPa | 1374.9
340.15 K, 101.33 kPa | 1374.1
341.15 K, 101.33 kPa | 1373.3
342.15 K, 101.33 kPa | 1372.4
343.15 K, 101.33 kPa | 1371.4
344.15 K, 101.33 kPa | 1370.5
345.15 K, 101.33 kPa | 1369.7
346.15 K, 101.33 kPa | 1368.7
347.15 K, 101.33 kPa | 1367.8
348.15 K, 100 kPa | 1367.9
348.15 K, 101.33 kPa | 1366.9
348.15 K, 1000 kPa | 1368.7
348.15 K, 10000 kPa | 1376.4
348.15 K, 20000 kPa | 1384.4
348.15 K, 40000 kPa | 1399.2
348.15 K, 60000 kPa | 1412.7
348.15 K, 80000 kPa | 1425
348.15 K, 100000 kPa | 1436.5
348.15 K, 120000 kPa | 1446.9
349.15 K, 101.33 kPa | 1366
350.15 K, 101.33 kPa | 1364.9
351.15 K, 101.33 kPa | 1364
352.15 K, 101.33 kPa | 1363
353.15 K, 101.33 kPa | 1362.2
354.15 K, 101.33 kPa | 1361.2
355.15 K, 101.33 kPa | 1360.4
356.15 K, 101.33 kPa | 1359.4
357.15 K, 101.33 kPa | 1358.6
358.15 K, 101.33 kPa | 1357.7
359.15 K, 101.33 kPa | 1356.8
360.15 K, 101.33 kPa | 1356
361.15 K, 101.33 kPa | 1355.1
362.15 K, 101.33 kPa | 1354.3
363.15 K, 101.33 kPa | 1353.4
364.15 K, 101.33 kPa | 1352.6
365.15 K, 101.33 kPa | 1351.7
366.15 K, 101.33 kPa | 1350.9
367.15 K, 101.33 kPa | 1350
368.15 K, 101.33 kPa | 1349.2
369.15 K, 101.33 kPa | 1348.3
370.15 K, 101.33 kPa | 1347.5
371.15 K, 101.33 kPa | 1346.7
372.15 K, 101.33 kPa | 1345.8
373.15 K, 100 kPa | 1346.3
373.15 K, 101.33 kPa | 1345
373.15 K, 1000 kPa | 1346.5
373.15 K, 10000 kPa | 1354.8
373.15 K, 20000 kPa | 1363.4
373.15 K, 40000 kPa | 1379.2
373.15 K, 60000 kPa | 1393.5
373.15 K, 80000 kPa | 1406.6
373.15 K, 100000 kPa | 1418.7
373.15 K, 120000 kPa | 1429.9
398.15 K, 100 kPa | 1324.8
398.15 K, 1000 kPa | 1324.6
398.15 K, 10000 kPa | 1333.5
398.15 K, 20000 kPa | 1342.9
398.15 K, 40000 kPa | 1359.8
398.15 K, 60000 kPa | 1374.9
398.15 K, 80000 kPa | 1388.7
398.15 K, 100000 kPa | 1401.4
398.15 K, 120000 kPa | 1413.4
